Columns and labels:
[1] = tested on: PD1-ss+10aa/Gaussia Luciferase; assay: Dox-Induced PD1-ss-Gluc Assay; format: cell-based; settings: 24 hr Dox induction; 293FRT/TO cells; mean; read-out: 24 hr Dox Inducible PD1ssGluc 293FRT/TO: Mean IC50
Outline: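 Flp-In 293 T-REx, stable line; Tet-regulated PD1-ss+10aa fused to Gaussia luciferase; plated day prior; cpd + doxycycline in DMSO/media; 37 °C, 5% CO2.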

[2] = tested on: TNFα-FL/Gaussia Luciferase; assay: Dox Induced TNFα-FL-Gluc Assay; format: cell-based; settings: for IC50: 24 hr Dox induction, 293FRT/TO cells, mean, read-out: 24 hr Dox Inducible TNFaFLGluc 293FRT/TO: Mean IC50; for 24 hr Dox Inducible TNFaFLGluc 293FRT/TO: TNF/PD1: ratio of TNFaFLGluc IC50 to PD1ssGluc IC50, '<=>' given where both are I.A.
Outline: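 Stereoisomer mixtures were tested where stereochemistry is not drawn. Induction used doxycycline added together with compound dilutions in DMSO/media to Flp-In 293 T-REx cells carrying a T-REx-regulated TNFα (aa 1-233)-Gaussia luciferase construct, then incubated at 37 °C, 5% CO2.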

[3] = tested on: HER3-ss+4aa/Gaussia Luciferase; assay: Dox-Induced Her3-ss-Gluc Assay; format: cell-based; settings: 24 hr Dox induction; 293FRT/TO cells; mean; read-out: 24 hr Dox Inducible Her3(ss + 4)Gluc 293FRT/TO: Mean IC50
Outline: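 Cells were seeded a day ahead, then given compound diluted in DMSO/media with doxycycline to induce expression of the HER3 signal sequence (+4 aa)–Gaussia luciferase fusion. Incubation was at 37° C., 5% CO2, in a stable Flp-In 293 T-REx line.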

[4] = tested on: IL-2-FL/Gaussia Luciferase; assay: Dox Induced IL2-FL-Gluc Assay; format: cell-based; settings: for IC50: 24 hr Dox induction, 293FRT/TO cells, mean, read-out: 24 hr Dox Inducible IL2FLGluc 293FRT/TO: Mean IC50; for 24 hr Dox Inducible IL2FLGluc 293FRT/TO: IL2/PD1: ratio of IL2FLGluc IC50 to PD1ssGluc IC50, '<=>' given where both are I.A.
Outline: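 Cells are plated one day ahead, then receive compound dilutions in DMSO/media with doxycycline and incubate at 37° C, 5% CO2. They are Flp-In 293 T-REx cells expressing a full-length IL-2 (amino acids 1-153)–Gaussia luciferase fusion under T-REx control.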

[5] = tested on: multiple myeloma cell line NCI-H929; assay: H929 Cell Viability Assay; format: cell-based, human; settings: Homo sapiens, NCI-H929, 48 h, NCI-H929 cells, Celltiter-Glo
Outline: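 Luminescent ATP detection (CellTiter-Glo) after 48 hours of compound exposure measures viability. Cells were plated in RPMI 1640 containing 10% fetal bovine serum and kept at 37° C under 5% CO2.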

[6] = tested on: multiple myeloma cell line U266B1; assay: U266 Cell Viability Assay; format: cell-based, human; settings: Homo sapiens, U-266, 48 h, U266B1 cells, Celltiter-Glo
Outline: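 Steps: culture in RPMI 1640 plus 10% FBS and 2 mM glutamine; plate and add compound dilutions; incubate 48 hours at 37° C., 5% CO2; add CellTiter-Glo and quantify luciferase signal.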

[7] = Liver Microsome Stability Assay (rat); settings: rat liver microsomes, with NADPH, 1.0 uM compound
Procedure: (§1) Stability of a compound was assessed in the presence of liver microsomes from various sources—mouse, rat, monkey and human liver microsomes. 1.0 uM compound, 0.4% DMSO in 0.1 M Potassium Phosphate with 1.0 mg/mL liver microsomes, were incubated at 37° C. with or without 1 mM NADPH. The samples were quenched at 0, and 30 minutes.

[8] = Liver Microsome Stability Assay (mouse); settings: mouse liver microsomes, with NADPH, 1.0 uM compound
Procedure: as §1

[9] = Liver Microsome Stability Assay (human); settings: human liver microsomes, with NADPH, 1.0 uM compound
Procedure: as §1

[10] = Liver Microsome Stability Assay (monkey); settings: monkey liver microsomes, with NADPH, 1.0 uM compound
Procedure: as §1

| Compound | IC50 [1] [µM] | IC50 [2] [µM] | IC50 [3] [µM] | IC50 [4] [µM] | EC50 [5] [µM] | EC50 [6] [µM] | Liver Microsome Stability (Multiple Species): Rat - % Remaining after 30 min w/NADPH [7] [%] | Liver Microsome Stability (Multiple Species): Mouse - % Remaining after 30 min w/NADPH [8] [%] | Liver Microsome Stability (Multiple Species): Human - % Remaining after 30 min w/NADPH [9] [%] | Liver Microsome Stability (Multiple Species): Monkey - % Remaining after 30 min w/NADPH [10] [%] | 24 hr Dox Inducible TNFaFLGluc 293FRT/TO: TNF/PD1 [2] | 24 hr Dox Inducible IL2FLGluc 293FRT/TO: IL2/PD1 [4] |
| --- | --- | --- | --- | --- | --- | --- | --- | --- | --- | --- | --- | --- |
| N#CC[C@@H](O)Cn1cccc1C(=O)Nc1nc([C@H]2CCCN2c2ccccc2)cs1 [Compound C112, 1-((R)-3-cyano-2-hydroxypropyl)-N-(4-((R)-1-phenylpyrrolidin-2-yl)thiazol-2-yl)-1H-pyrrole-2-carboxamide] | 0.545 | 9.74 | 2.24 | 2.29 | 20.7 | > 25 | 12.6 | 3.03 | 23.6 | 13.1 | 17.9 | 4.2 |
| CCC(CC#N)Cn1cccc1C(=O)Nc1nc([C@H]2CCCN2c2ccccc2)cs1 (stereo partly drawn) [Compound C113, 1-(2-(cyanomethyl)butyl)-N-(4-((R)-1-phenylpyrrolidin-2-yl)thiazol-2-yl)-1H-pyrrole-2-carboxamide] | 0.879 | 16.3 | 1.33 | 1.8 | 22.8 | > 25 | 14.8 | 5.06 | 14.9 | 3.66 | 18.6 | 2 |
| O=C(Nc1nc([C@H]2CCCN2c2ccccc2)cs1)c1cccn1-c1csc2cnccc12 [Compound C115, (R)-N-(4-(1-phenylpyrrolidin-2-yl)thiazol-2-yl)-1-(thieno[2,3-c]pyridin-3-yl)-1H-pyrrole-2-carboxamide] | 0.287 | 3.53 | 0.551 | 0.613 | > 22.8 | > 25 | 2.2 | 1.07 | 1.3 | 0.66 | 12.3 | 2.1 |

The next lines start with results.

| IC50 [1] [µM] | IC50 [2] [µM] | IC50 [3] [µM] | IC50 [4] [µM] | EC50 [5] [µM] | EC50 [6] [µM] | Liver Microsome Stability (Multiple Species): Rat - % Remaining after 30 min w/NADPH [7] [%] | Liver Microsome Stability (Multiple Species): Mouse - % Remaining after 30 min w/NADPH [8] [%] | Liver Microsome Stability (Multiple Species): Human - % Remaining after 30 min w/NADPH [9] [%] | Liver Microsome Stability (Multiple Species): Monkey - % Remaining after 30 min w/NADPH [10] [%] | Compound | 24 hr Dox Inducible TNFaFLGluc 293FRT/TO: TNF/PD1 [2] | 24 hr Dox Inducible IL2FLGluc 293FRT/TO: IL2/PD1 [4] |
| --- | --- | --- | --- | --- | --- | --- | --- | --- | --- | --- | --- | --- |
| 6.9 | > 25 | > 25 | > 25 | > 25 | > 25 | 19.2 | 15.2 | 0.67 | 0.22 | O=C(Nc1nc(/C=C/c2cn(CCO)cn2)cs1)c1cccn1Cc1ccncc1 [Compound C114, (E)-N-(4-(2-(1-(2-hydroxyethyl)-1H-imidazol-4-yl)vinyl)thiazol-2-yl)-1-(pyridin-4-ylmethyl)-1H-pyrrole-2-carboxamide] | >3.62 | >3.6 |
| 1.03 | 7.54 | 1.06 | 1.59 | > 25 | > 25 | 6.02 | 5.51 | 24.8 | 6.55 | O=C(Nc1nc([C@H]2CCCN2c2ccccc2)cs1)c1cccn1CCCC1COC1 [Compound C116, (R)-1-(3-(oxetan-3-yl)propyl)-N-(4-(1-phenylpyrrolidin-2-yl)thiazol-2-yl)-1H-pyrrole-2-carboxamide] | 7.3 | 1.5 |
